pIC50: −log10 of the molar value. Like-named read-outs stand apart in the source and are kept apart here. A value given as a limit tells only on which side of the number the result lay.

Format in all cases: biochemical
The target of assay [1] is T1, human TOR (Homo sapiens, UniProt P42345).
T1 construct: FLAG
The assay is described as follows: mTOR enzyme assay (DELFIA, His6-S6K substrate). The note with it: read-out: mTOR Kinase Avg. IC50.

Assay [2] addresses PI3K-beta (Homo sapiens, UniProt P42338). The assay is described as follows: PI3K-beta fluorescence polarization assay. The note with it: read-out: PI3Kβ Avg. IC50. Summed up: (§1)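 FP competition read-out: PIP3 produced displaces BODIPY-TMR-IP4 (5 nM) from GST-GRP1 PH domain (100 nM). Kinase step: 5 ng enzyme, 2.5 μM diC8-PIP2, 25 μM ATP, pH 7 HEPES/MgCl2, 1 h, 25° C; EDTA stop.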

For assay [3], the target named is PI3K-delta (Homo sapiens, UniProt O00329). The experiment in a line: PI3K-delta fluorescence polarization assay. The conditions noted are these: read-out: PI3Kδ Avg. IC50. A general note: In fluorescence polarisation assays a small probe gives low polarisation when free and higher when bound to something large.
Chain of PI3K-delta (O00329 whole entry, species assumed): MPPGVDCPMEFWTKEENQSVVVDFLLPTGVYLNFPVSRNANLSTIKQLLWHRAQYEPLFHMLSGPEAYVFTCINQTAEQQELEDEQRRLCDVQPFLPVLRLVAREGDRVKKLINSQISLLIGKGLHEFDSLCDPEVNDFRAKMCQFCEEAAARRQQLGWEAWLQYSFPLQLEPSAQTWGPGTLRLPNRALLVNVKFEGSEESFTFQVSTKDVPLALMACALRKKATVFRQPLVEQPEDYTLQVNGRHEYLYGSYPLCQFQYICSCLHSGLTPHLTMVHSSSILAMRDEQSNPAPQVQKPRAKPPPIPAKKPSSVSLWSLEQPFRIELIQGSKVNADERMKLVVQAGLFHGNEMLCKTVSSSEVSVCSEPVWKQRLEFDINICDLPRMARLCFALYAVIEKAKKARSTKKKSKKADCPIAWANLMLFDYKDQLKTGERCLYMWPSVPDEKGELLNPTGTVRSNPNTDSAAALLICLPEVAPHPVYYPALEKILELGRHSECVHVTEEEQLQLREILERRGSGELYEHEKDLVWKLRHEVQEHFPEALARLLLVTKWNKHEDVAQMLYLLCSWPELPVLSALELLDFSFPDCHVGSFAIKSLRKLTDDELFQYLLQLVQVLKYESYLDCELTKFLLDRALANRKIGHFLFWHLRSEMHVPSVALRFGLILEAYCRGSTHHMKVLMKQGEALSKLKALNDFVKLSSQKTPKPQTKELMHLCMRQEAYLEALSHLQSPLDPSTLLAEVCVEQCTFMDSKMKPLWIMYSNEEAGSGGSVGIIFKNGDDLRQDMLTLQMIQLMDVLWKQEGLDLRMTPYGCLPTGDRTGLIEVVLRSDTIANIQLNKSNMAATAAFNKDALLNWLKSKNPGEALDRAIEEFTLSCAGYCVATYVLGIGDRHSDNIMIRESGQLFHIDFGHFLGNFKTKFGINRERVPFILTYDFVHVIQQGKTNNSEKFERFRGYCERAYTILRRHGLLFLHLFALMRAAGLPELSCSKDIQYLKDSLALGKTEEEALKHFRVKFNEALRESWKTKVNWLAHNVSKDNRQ
Chain of PI3K-delta (P27986 whole entry partner, species assumed): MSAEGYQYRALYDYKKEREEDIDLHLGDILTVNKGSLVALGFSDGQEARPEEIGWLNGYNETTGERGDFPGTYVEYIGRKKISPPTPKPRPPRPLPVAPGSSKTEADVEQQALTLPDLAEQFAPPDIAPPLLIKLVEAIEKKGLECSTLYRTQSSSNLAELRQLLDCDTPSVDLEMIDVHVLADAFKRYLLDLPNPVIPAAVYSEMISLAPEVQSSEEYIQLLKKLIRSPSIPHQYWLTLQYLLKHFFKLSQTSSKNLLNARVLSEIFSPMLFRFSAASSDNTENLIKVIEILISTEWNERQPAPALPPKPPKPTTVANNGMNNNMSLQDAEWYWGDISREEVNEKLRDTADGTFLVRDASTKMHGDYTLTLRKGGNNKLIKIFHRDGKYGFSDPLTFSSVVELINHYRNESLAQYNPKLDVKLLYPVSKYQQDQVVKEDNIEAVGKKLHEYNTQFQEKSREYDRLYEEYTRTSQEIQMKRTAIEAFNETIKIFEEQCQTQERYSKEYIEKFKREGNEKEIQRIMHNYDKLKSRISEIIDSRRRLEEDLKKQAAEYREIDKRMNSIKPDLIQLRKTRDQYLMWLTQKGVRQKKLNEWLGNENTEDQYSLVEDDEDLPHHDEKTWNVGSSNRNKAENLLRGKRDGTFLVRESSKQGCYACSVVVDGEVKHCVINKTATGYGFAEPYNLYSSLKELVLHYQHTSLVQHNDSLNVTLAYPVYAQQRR
For assay [4], the target named is PI3K-gamma (Homo sapiens, UniProt P48736). The assay is described as follows: PI3K-gamma fluorescence polarization assay. The conditions noted are these: PI3Kγ Avg. IC50. The essentials:
as §1

Assay [5] has as its target PI3K-alpha (Homo sapiens, UniProt P42336). The experiment in a line: PI3K-alpha fluorescence polarization assay.

Chain of PI3K-beta (P42338 whole entry, species assumed, the tested form may be a part): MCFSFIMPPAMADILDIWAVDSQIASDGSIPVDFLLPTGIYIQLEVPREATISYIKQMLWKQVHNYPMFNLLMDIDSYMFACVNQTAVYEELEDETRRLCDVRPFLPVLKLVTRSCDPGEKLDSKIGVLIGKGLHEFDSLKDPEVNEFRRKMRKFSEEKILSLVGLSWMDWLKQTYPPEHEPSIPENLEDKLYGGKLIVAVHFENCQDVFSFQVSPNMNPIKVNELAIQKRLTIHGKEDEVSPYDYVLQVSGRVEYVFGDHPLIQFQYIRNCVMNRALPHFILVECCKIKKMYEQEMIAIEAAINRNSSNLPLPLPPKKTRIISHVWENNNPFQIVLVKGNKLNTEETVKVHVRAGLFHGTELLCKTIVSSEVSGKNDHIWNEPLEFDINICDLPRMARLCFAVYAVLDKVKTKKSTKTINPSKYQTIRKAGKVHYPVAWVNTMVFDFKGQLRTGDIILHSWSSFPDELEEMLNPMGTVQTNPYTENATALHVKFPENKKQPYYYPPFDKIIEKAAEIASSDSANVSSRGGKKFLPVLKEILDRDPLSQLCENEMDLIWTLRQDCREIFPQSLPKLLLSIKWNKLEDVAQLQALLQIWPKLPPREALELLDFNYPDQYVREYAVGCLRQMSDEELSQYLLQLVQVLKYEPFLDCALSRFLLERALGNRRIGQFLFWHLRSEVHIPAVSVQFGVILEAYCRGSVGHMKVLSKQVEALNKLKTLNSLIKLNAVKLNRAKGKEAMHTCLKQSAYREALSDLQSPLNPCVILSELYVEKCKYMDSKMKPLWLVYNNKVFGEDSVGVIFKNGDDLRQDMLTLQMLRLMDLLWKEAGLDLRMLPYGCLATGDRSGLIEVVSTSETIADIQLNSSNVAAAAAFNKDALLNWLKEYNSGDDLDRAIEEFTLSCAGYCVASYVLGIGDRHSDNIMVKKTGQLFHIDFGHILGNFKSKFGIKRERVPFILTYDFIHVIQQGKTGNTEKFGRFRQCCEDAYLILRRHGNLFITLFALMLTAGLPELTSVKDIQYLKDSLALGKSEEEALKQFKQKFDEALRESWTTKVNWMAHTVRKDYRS
Chain of PI3K-beta (P27986 whole entry partner, species assumed, the tested form may be a part): as the sequence (P27986 whole entry partner, species assumed) above
Chain of PI3K-alpha (P42336 whole entry, species assumed): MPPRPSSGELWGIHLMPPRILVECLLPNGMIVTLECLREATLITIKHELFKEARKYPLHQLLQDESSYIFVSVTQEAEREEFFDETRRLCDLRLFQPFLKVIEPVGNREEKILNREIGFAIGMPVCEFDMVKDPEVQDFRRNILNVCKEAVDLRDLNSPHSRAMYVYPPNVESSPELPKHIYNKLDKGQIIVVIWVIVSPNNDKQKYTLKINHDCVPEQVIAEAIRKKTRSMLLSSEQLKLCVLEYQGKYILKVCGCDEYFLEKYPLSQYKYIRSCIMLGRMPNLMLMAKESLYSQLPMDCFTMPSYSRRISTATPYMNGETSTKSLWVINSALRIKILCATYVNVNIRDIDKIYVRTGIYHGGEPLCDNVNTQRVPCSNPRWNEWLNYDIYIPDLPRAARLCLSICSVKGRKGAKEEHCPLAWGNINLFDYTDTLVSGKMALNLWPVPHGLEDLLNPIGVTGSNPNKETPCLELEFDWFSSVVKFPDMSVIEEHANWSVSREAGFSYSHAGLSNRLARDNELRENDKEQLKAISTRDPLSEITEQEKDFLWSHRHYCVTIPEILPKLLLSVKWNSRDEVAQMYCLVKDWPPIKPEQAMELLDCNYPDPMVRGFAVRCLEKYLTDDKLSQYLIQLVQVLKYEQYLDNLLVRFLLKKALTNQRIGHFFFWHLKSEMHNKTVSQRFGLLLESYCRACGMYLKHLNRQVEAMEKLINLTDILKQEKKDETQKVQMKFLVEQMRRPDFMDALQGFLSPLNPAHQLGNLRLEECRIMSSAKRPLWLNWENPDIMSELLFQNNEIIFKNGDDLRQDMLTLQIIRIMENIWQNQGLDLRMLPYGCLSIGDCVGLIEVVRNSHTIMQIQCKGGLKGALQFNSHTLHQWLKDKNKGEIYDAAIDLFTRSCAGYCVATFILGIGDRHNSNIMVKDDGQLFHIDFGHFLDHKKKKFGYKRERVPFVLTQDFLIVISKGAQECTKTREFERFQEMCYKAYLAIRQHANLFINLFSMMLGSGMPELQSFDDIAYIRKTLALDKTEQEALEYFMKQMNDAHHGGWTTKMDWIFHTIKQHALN
Chain of PI3K-alpha (P27986 whole entry partner, species assumed): as the sequence (P27986 whole entry partner, species assumed) above
Chain of PI3K-gamma (P48736 whole entry, species assumed): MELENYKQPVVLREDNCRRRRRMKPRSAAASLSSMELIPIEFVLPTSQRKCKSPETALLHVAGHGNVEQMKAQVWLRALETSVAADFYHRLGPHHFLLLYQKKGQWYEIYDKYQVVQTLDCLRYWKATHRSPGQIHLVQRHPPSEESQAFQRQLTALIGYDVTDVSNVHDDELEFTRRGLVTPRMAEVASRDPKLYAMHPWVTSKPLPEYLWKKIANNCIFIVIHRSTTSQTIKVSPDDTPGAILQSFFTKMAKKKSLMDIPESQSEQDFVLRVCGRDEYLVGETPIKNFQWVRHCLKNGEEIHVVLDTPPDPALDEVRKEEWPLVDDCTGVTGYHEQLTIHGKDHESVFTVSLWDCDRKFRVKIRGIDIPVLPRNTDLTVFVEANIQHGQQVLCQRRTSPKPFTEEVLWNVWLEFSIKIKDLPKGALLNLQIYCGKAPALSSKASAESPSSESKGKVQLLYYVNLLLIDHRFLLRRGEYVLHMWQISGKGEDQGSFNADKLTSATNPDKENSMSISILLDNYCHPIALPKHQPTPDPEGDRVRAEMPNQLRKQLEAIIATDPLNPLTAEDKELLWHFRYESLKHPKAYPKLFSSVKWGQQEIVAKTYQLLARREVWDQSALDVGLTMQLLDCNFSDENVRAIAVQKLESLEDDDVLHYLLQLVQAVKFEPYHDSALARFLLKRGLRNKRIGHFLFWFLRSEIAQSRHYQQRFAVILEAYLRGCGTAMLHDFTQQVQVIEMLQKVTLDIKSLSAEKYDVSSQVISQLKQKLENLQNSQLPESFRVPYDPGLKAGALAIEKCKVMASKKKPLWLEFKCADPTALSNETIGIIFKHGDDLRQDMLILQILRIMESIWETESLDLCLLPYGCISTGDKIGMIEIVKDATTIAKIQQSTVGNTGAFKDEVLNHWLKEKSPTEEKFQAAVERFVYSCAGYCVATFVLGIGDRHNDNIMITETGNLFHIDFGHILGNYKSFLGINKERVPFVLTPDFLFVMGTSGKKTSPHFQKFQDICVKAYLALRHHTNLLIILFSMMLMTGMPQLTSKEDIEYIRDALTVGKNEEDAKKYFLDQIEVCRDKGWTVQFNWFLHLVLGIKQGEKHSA

For the compound `COc1ccc2c(c1)c(/C=C1\Oc3cc(O)cc(O)c3C1=O)c(C)n2CCO` [Example 321, (2Z)-4,6-Dihydroxy-2-{[1-(2-hydroxyethyl)-5-methoxy-2-methyl-1H-indol-3-yl]methylene}-1-benzofuran-3(2H)-one], the pIC50 (usually −log10 of the IC50, conventionally taken in molar units) in assay [1] is 8.16; in assay [2], 8.00; in assay [3], 8.74; in assay [4], 7.81; in assay [5] (read-out: PI3Kα Avg. IC50), 8.70.

Turning to `COc1ccc2c(c1)c(/C=C1\Oc3cc(O)cc(O)c3C1=O)c(-c1cnn(C)c1)n2CCN1CCN(C)CC1` [Example 341, (2Z)-4,6-Dihydroxy-2-({5-methoxy-1-[2-(4-methylpiperazin-1-yl)ethyl]-2-(1-methyl-1H-pyrazol-4-yl)-1H-indol-3-yl}methylene)-1-benzofuran-3(2H)-one], the negative-log IC50 (pIC50) in assay [1] was 7.97; in assay [2] it was 8.15; in assay [3], 9.10; in assay [4], 7.64; in assay [5] (read-out: PI3Kα Avg. IC50), 8.77.

Turning to `COc1ccc2c(c1)c(/C=C1\Oc3cc(O)cc(O)c3C1=O)c(C1CC1)n2CCn1cccn1` [Example 340, (2Z)-2-({2-Cyclopropyl-5-methoxy-1-[2-(1H-pyrazol-1-yl)ethyl]-1H-indol-3-yl}methylene)-4,6-dihydroxy-1-benzofuran-3(2H)-one], the pIC50 is more than 9.09 in assay [1]; 8.12 in assay [2]; 8.80 in assay [3]; 8.52 in assay [4]; 8.70 in assay [5] (read-out: PI3Kα Avg. IC50).

In the case of `COc1ccc2c(c1)c(/C=C1\Oc3cc(O)cc(O)c3C1=O)c(C(=O)N(C)C)n2CCCN(C)C` [Example 343, 3-[(Z)-(4,6-Dihydroxy-3-oxo-1-benzofuran-2(3H)-ylidene)methyl]-1-[3-(dimethylamino)propyl]-5-methoxy-N,N-dimethyl-1H-indole-2-carboxamide], the negative logarithm of the IC50 (pIC50) in assay [1] is less than 6.80; in assay [2], 7.15; in assay [3], 8.60; in assay [4] it was 6.53; in assay [5] (read-out: PI3Kα Avg. IC50) it was 7.92.

As for `COc1ccc2c(c1)c(/C=C1\Oc3cc(O)cc(O)c3C1=O)c(C1CC1)n2CCN1CCN(C)CC1` [Example 302, (2Z)-2-({2-Cyclopropyl-5-methoxy-1-[2-(4-methylpiperazin-1-yl)ethyl]-1H-indol-3-yl}methylene)-4,6-dihydroxy-1-benzofuran-3(2H)-one], the pIC50 in assay [1] was 6.52; in assay [2], 7.85; in assay [3], more than 8.60; in assay [4], 6.12; in assay [5] (read-out: PI3Kα Avg. IC50) it was 7.77.

Take `COc1ccc2c(c1)c(C=C1Oc3cc(O)cc(O)c3C1=O)cn2CCCCN1CCOCC1` [Example 115, 4,6-dihydroxy-2-{[5-methoxy-1-(4-morpholin-4-ylbutyl)-1H-indol-3-yl]methylene}-1-benzofuran-3(2H)-one]: the pIC50 in assay [1] is 6.01; in assay [2], 6.87; in assay [3] it was 8.07; in assay [4] it was 5.93; in assay [5] (read-out: PI3Kα Avg. IC50), 7.41.

For the compound `COc1ccc2c(c1)c(/C=C1\Oc3cc(O)cc(O)c3C1=O)c(C(=O)N(C)C)n2CCN1CCN(C)CC1` [Example 316, 3-[(Z)-(4,6-Dihydroxy-3-oxo-1-benzofuran-2(3H)-ylidene)methyl]-5-methoxy-N,N-dimethyl-1-[2-(4-methylpiperazin-1-yl)ethyl]-1H-indole-2-carboxamide], the negative-log IC50 (pIC50) in assay [1] is 7.84; in assay [2], 7.60; in assay [3], 8.82; in assay [4] it was 6.56; in assay [5] (read-out: PI3Kα Avg. IC50), more than 8.57.

`COc1ccc2[nH]cc(/C=C3\Oc4cc(O)cc(O)c4C3=O)c2c1` [Example 59, (2Z)-4,6-dihydroxy-2-[(5-methoxy-1H-indol-3-yl)methylene]-1-benzofuran-3(2H)-one]: the pIC50 in assay [1] is 6.58; in assay [2], 6.76; in assay [3], 7.15; in assay [4], 6.57; in assay [5] (PI3Kα Avg. IC50), 7.52.

As for `COc1ccc2c(c1)c(C=C1Oc3cc(O)cc(O)c3C1=O)c(C)n2C` [Example 89, 4,6-dihydroxy-2-[(5-methoxy-1,2-dimethyl-1H-indol-3-yl)methylene]-1-benzofuran-3(2H)-one], the negative logarithm of the IC50 (pIC50) in assay [1] is 8.46; in assay [2] it was 7.72; in assay [3], 8.10; in assay [4], 7.27; in assay [5] (PI3Kα Avg. IC50), 8.16.

Consider `O=C1/C(=C/c2c(-c3ccc(F)cc3)[nH]c3ccccc23)Oc2c1ccc(O)c2O` [Example 56, (2Z)-2-{[2-(4-fluorophenyl)-1H-indol-3-yl]methylene}-6,7-dihydroxy-1-benzofuran-3(2H)-one], for which the negative logarithm of the IC50 (pIC50) in assay [1] was less than 4.70; in assay [2], 6.60; in assay [3] it was 6.97; in assay [4], 5.71; in assay [5] (read-out: PI3Kα Avg. IC50), 6.72.

For the compound `COc1ccc2c(c1)c(/C=C1\Oc3cc(O)ccc3C1=O)c(C(=O)N(C)C)n2CCCN(C)C` [Example 345, 1-[3-(Dimethylamino)propyl]-3-[(Z)-(6-hydroxy-3-oxo-1-benzofuran-2(3H)-ylidene)methyl]-5-methoxy-N,N-dimethyl-1H-indole-2-carboxamide], the pIC50 was less than 5.40 in assay [1]; 7.00 in assay [2]; 8.70 in assay [3]; 6.16 in assay [4]; 7.62 in assay [5] (read-out: PI3Kα Avg. IC50).

With `COc1ccc2c(c1)c(C=C1Oc3cc(O)cc(O)c3C1=O)c(C)n2CCN1CCN(CCO)CC1` [Example 109, 4,6-dihydroxy-2-[(1-{2-[4-(2-hydroxyethyl)piperazin-1-yl]ethyl}-5-methoxy-2-methyl-1H-indol-3-yl)methylene]-1-benzofuran-3(2H)-one], the pIC50 in assay [1] was more than 7.64; in assay [2] it was 7.74; in assay [3] it was 8.55; in assay [4] it was 6.49; in assay [5] (read-out: PI3Kα Avg. IC50), 8.37.

`COc1ccc2c(c1)c(C=C1Oc3cc(O)cc(O)c3C1=O)c(C)n2CCCCN1CCN(CCO)CC1` [Example 98, 4,6-dihydroxy-2-[(1-{4-[4-(2-hydroxyethyl)piperazin-1-yl]butyl}-5-methoxy-2-methyl-1H-indol-3-yl)methylene]-1-benzofuran-3(2H)-one]: the pIC50 in assay [1] is 7.23; in assay [2], 7.98; in assay [3] it was 9.00; in assay [4], 6.61; in assay [5] (read-out: PI3Kα Avg. IC50), 8.03.

For `COc1ccc2c(c1)c(/C=C1\Oc3cc(O)c(F)cc3C1=O)c(C)n2CCN1CCN(C)CC1` [Example 351, (2Z)-5-Fluoro-6-hydroxy-2-({5-methoxy-2-methyl-1-[2-(4-methylpiperazin-1-yl)ethyl]-1H-indol-3-yl}methylene)-1-benzofuran-3(2H)-one], the pIC50 in assay [1] was less than 6.10; in assay [2] it was 6.30; in assay [3], 8.05; in assay [4], 5.49; in assay [5] (read-out: PI3Kα Avg. IC50), 7.18.

For the compound `COc1cc(F)c2[nH]c(-c3c(C)nn(C)c3C)c(/C=C3\Oc4ccc(NC(=O)Nc5ccc(C(=O)N(C)CCN(C)C)cc5)cc4C3=O)c2c1` [Compound 710, N-[2-(dimethylamino)ethyl]-4-({[(2Z)-2-{[7-fluoro-5-methoxy-2-(1,3,5-trimethyl-1H-pyrazol-4-yl)-1H-indol-3-yl]methylidene}-3-oxo-2,3-dihydro-1-benzofuran-5-yl]carbamoyl}amino)-N-methylbenzamide], the negative-log IC50 (pIC50) in assay [1] was more than 9.00; in assay [2], 9.15; in assay [3], 9.22; in assay [4], 8.63; in assay [5] (read-out: PI3Kα Avg. IC50), 9.70.

As for `COc1ccc2c(c1)c(/C=C1\Oc3cc(O)cc(O)c3C1=O)c(C)n2CCN1CCC(O)CC1` [Example 320, (2Z)-4,6-Dihydroxy-2-({1-[2-(4-hydroxypiperidin-1-yl)ethyl]-5-methoxy-2-methyl-1H-indol-3-yl}methylene)-1-benzofuran-3(2H)-one], the pIC50 in assay [1] is 7.89; in assay [2], 7.66; in assay [3], 9.10; in assay [4] it was 7.44; in assay [5] (read-out: PI3Kα Avg. IC50), 8.52.

In the case of `COc1ccc2c(c1)c(/C=C1\Oc3cc(O)cc(F)c3C1=O)c(C)n2CCN1CCN(C)CC1` [Example 359, (2Z)-4-Fluoro-6-hydroxy-2-({5-methoxy-2-methyl-1-[2-(4-methylpiperazin-1-yl)ethyl]-1H-indol-3-yl}methylene)-1-benzofuran-3(2H)-one], the pIC50 in assay [1] was less than 6.10; in assay [2], 7.73; in assay [3] it was 8.82; in assay [4] it was 6.63; in assay [5] (read-out: PI3Kα Avg. IC50), 7.96.

On to `COc1ccc2c(c1)c(/C=C1\Oc3cc(O)cc(O)c3C1=O)c(C)n2CCn1ccnc1` [Example 328, (2Z)-4,6-Dihydroxy-2-({1-[2-(1H-imidazol-1-yl)ethyl]-5-methoxy-2-methyl-1H-indol-3-yl}methylene)-1-benzofuran-3(2H)-one], for which the negative-log IC50 (pIC50) in assay [1] was more than 7.62; in assay [2], 8.60; in assay [3], 8.70; in assay [4], 7.81; in assay [5] (read-out: PI3Kα Avg. IC50) it was 8.22.

Consider `COc1ccc2c(c1)c(/C=C1\Oc3cc(O)cc(O)c3C1=O)cn2CCN1CCC(O)CC1` [Example 319, (2Z)-4,6-Dihydroxy-2-({1-[2-(4-hydroxypiperidin-1-yl)ethyl]-5-methoxy-1H-indol-3-yl}methylene)-1-benzofuran-3(2H)-one], for which the negative logarithm of the IC50 (pIC50) in assay [1] was 6.58; in assay [2] it was 6.96; in assay [3], 8.46; in assay [4] it was 6.93; in assay [5] (read-out: PI3Kα Avg. IC50), 7.42.

(Values after patent US20090311217A1, “3-SUBSTITUTED-1H-INDOLE COMPOUNDS, THEIR USE AS MTOR KINASE AND PI3 KINASE INHIBITORS, AND THEIR SYNTHESES” (priority 2008, published 2009).)
